Values quoted from earlier work, collected in US8703823B2, “Methods for treatment of migraine and symptoms thereof” (priority 2004, dated 2014).

Key:
[1] = in vivo
[2] = individuals treated with trimethobenzamide for uncontrolled vomiting

Structure (SMILES)	Migraine prevention / antimigraine effect [1]	Occurrence of adverse diskinesia side effects [2] [%]
CCN(CC)CCNC(=O)c1cc(Cl)c(N)cc1OC [Metoclopramide, metoclopramide]	exerted an antimigraine effect	–
COc1cc(N)c(Cl)cc1C(=O)NC1CCN(CCCOc2ccc(F)cc2)CC1OC (stereo not drawn) [cisapride]	ineffective	–
COc1cc(C(=O)NCc2ccc(OCCN(C)C)cc2)cc(OC)c1OC.Cl [trimethobenzamide, N-[p-[2-(dimethylamino)ethoxy]benzyl]-3,4,5-trimethoxybenzamide monohydrochloride]	–	< 2
